Here are results for ten compounds from ChEMBL document CHEMBL1159141, “Synthesis and biology of substituted 3-phenyl taxol analogues” (1994).

The target in test [1] is Tubulin alpha chain (Sus scrofa) (UniProt P02550). Briefly: In vitro concentration which causes polymerization of 50% of the tubulin, activity relative to taxol (ED50=1). The class given is functional.
A further test concerns B16. Briefly: In vitro concentration which causes 50% inhibition of proliferation of B16 melanoma cells, activity relative to taxol (ED50=1). The class given is functional, Mus musculus.
Another test has as its system HCT-116. Briefly: In vitro concentration which causes 50% inhibition against HCT116 cell line, activity relative to taxol (ED50=1). The class given is functional, Homo sapiens.

Tubulin alpha chain (Sus scrofa), sequence (P02550 whole entry, looked up): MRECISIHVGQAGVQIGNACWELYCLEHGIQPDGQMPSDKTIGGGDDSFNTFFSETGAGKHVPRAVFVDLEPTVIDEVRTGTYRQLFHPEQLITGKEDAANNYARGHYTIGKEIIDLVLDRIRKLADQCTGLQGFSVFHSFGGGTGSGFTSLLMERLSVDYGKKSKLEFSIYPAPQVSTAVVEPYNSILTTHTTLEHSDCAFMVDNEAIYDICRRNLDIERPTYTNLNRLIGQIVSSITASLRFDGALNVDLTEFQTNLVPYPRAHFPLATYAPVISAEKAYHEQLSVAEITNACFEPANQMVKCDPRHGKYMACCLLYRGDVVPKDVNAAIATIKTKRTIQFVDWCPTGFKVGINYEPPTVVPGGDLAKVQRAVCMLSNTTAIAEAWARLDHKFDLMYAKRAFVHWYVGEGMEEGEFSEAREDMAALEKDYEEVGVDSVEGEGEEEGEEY

Take `COc1ccc([C@@H](NC(=O)c2ccccc2)[C@@H](O)C(=O)O[C@H]2C[C@@]3(O)[C@@H](OC(=O)c4ccccc4)[C@@H]4[C@]5(OC(C)=O)CO[C@@H]5C[C@H](O)[C@@]4(C)C(=O)[C@H](OC(C)=O)C(=C2C)C3(C)C)cc1`: the ED50 ratio in test [1] amounted to 0.5; with B16, 1.

`CC(=O)O[C@H]1C(=O)[C@@]2(C)[C@H]([C@H](OC(=O)c3ccccc3)[C@]3(O)C[C@H](OC(=O)[C@H](O)[C@@H](NC(=O)c4ccccc4)c4ccccc4)C(C)=C1C3(C)C)[C@]1(OC(C)=O)CO[C@@H]1C[C@@H]2O` [PACLITAXEL]: the ED50 ratio (in test [1]; in the test with B16) was 1 each time.

As to `CC(=O)O[C@H]1C(=O)[C@@]2(C)[C@H]([C@H](OC(=O)c3ccccc3)[C@]3(O)C[C@H](OC(=O)[C@H](O)[C@H](NC(=O)c4ccccc4)c4ccccc4C)C(C)=C1C3(C)C)[C@]1(OC(C)=O)CO[C@@H]1C[C@@H]2O`, the ED50 ratio is 5.1 in test [1] and above 33 in the test with B16.

On to `CC(=O)O[C@H]1C(=O)[C@@]2(C)[C@H]([C@H](OC(=O)c3ccccc3)[C@]3(O)C[C@H](OC(=O)[C@H](O)[C@H](NC(=O)c4ccccc4)c4ccc(Cl)c(Cl)c4)C(C)=C1C3(C)C)[C@]1(OC(C)=O)CO[C@@H]1C[C@@H]2O`, for which the values for the ED50 ratio (in test [1]; with B16) were 7.1 and 40, respectively.

With `CC(=O)O[C@H]1C(=O)[C@@]2(C)[C@H]([C@H](OC(=O)c3ccccc3)[C@]3(O)C[C@H](OC(=O)[C@H](O)[C@H](NC(=O)c4ccccc4)c4ccc(C)cc4)C(C)=C1C3(C)C)[C@]1(OC(C)=O)CO[C@@H]1C[C@@H]2O`, the ED50 ratio in test [1] worked out at 2.4; in the test with B16, 3.

`CC(=O)O[C@H]1C(=O)[C@@]2(C)[C@H]([C@H](OC(=O)c3ccccc3)[C@]3(O)C[C@H](OC(=O)[C@H](O)[C@H](NC(=O)c4ccccc4)c4cccc(Cl)c4)C(C)=C1C3(C)C)[C@]1(OC(C)=O)CO[C@@H]1C[C@@H]2O`: the ED50 ratio stood at 4.4 in test [1] and 6.7 in the test on B16.

Consider `CC(=O)O[C@H]1C(=O)[C@@]2(C)[C@H]([C@H](OC(=O)c3ccccc3)[C@]3(O)C[C@H](OC(=O)[C@H](O)[C@H](NC(=O)c4ccccc4)c4ccc(Cl)cc4)C(C)=C1C3(C)C)[C@]1(OC(C)=O)CO[C@@H]1C[C@@H]2O`, for which the values for the ED50 ratio (in test [1]; with B16) were 1.9 and 2.2, respectively.

For the compound `CC(=O)O[C@H]1C(=O)[C@@]2(C)[C@H]([C@H](OC(=O)c3ccccc3)[C@]3(O)C[C@H](OC(=O)[C@H](O)[C@H](NC(=O)c4ccccc4)c4ccc([N+](=O)[O-])cc4)C(C)=C1C3(C)C)[C@]1(OC(C)=O)CO[C@@H]1C[C@@H]2O`, the ED50 ratio in test [1] is 1.1; in the test on HCT-116, 35.

As to `CC(=O)O[C@H]1C(=O)[C@@]2(C)[C@H]([C@H](OC(=O)c3ccccc3)[C@]3(O)C[C@H](OC(=O)[C@H](O)[C@H](NC(=O)c4ccccc4)c4cccc(N(C)C)c4)C(C)=C1C3(C)C)[C@]1(OC(C)=O)CO[C@@H]1C[C@@H]2O`, the ED50 ratio in test [1] stood at 4.6; in the test with B16, 5.8.

For `CC(=O)O[C@H]1C(=O)[C@@]2(C)[C@H]([C@H](OC(=O)c3ccccc3)[C@]3(O)C[C@H](OC(=O)[C@H](O)[C@H](NC(=O)c4ccccc4)c4ccc(F)cc4)C(C)=C1C3(C)C)[C@]1(OC(C)=O)CO[C@@H]1C[C@@H]2O`, the ED50 ratio in test [1] came to 1.1; in the test on B16, 1.2.
